We go through one compound from patent publication US20260130959A1, “FUNGAL EXTRACTS AND FLAVOR COMBINATIONS THEREOF” (MYCOTECHNOLOGY, INC., priority 2019, published 2026).

Molecules are shown by their SMILES.

This assay concerns Sprague-Dawley rats. The experiment in a line: Rat lick study (Davis Rig) on saccharin, citric acid and quinine. It counts as in vivo. Particulars: water 192 licks. Here is the method: Bitter blocker prepared as described above in Example 2, at 5, 25, 50 and 100 mg/L alone (called CLEARTASTE® herein) and added to each solution below:
Sucrose 250 mM; Saccharin 10 mM; MSG 150 mM; NaCl 400 and 800 mM; Citric Acid 10 mM; Quinine 0.08 and 0.16 mM.
16 naïve, adult (>50 days old, approximately 200 gram body weight), male Sprague-Dawley rats were tested in the MS-160 “Davis Rig,” manufactured by DiLog Instruments, Inc. We measured licking behavior at a resolution of 1 ms during the controlled presentation of up to 16 taste stimuli. The Davis Rig is housed inside an acoustic isolation chamber utilizing a white noise generator. Intake and exhaust fans located on opposing walls of the chamber direct constant air flow along the longitudinal axis of the stimulus delivery tray in order to reduce olfactory cues for any given stimulus. Therefore all licking behavior during brief (30 s duration) trials was motivated by orosensory/taste sensations. Rats were trained to lick during trials presenting water as the stimulus in the Davis Rig for three consecutive days prior to the start of testing. Each daily test session contained two blocks of 15 trials producing two replications of each test stimulus within each daily session. We tested the rats for a total of eight days.

`C=C[C@H]1C[N@@]2CC[C@H]1C[C@H]2[C@H](O)c1ccnc2ccc(OC)cc12` [quinine] showed a licks (0.08 mM quinine alone) of 170 licks and a licks (0.16 mM quinine alone) of 70 licks.
